Patent publication US10538534B2 (Colorado State University Research Foundation, priority 2015, dated 2020)
pIC50: −log10 of the molar value. Like-named read-outs stand apart in the source and are kept apart here.

Tests used:
HDAC8 = target: T1, HDAC8 (Homo sapiens, UniProt Q9BY41); assay: Biochemical profiling for HDACi activity, miniaturized assay platform (HDAC1-9); settings: compared with IC50 for HDACs 1-3
T1 sequence (Q9BY41 1-377): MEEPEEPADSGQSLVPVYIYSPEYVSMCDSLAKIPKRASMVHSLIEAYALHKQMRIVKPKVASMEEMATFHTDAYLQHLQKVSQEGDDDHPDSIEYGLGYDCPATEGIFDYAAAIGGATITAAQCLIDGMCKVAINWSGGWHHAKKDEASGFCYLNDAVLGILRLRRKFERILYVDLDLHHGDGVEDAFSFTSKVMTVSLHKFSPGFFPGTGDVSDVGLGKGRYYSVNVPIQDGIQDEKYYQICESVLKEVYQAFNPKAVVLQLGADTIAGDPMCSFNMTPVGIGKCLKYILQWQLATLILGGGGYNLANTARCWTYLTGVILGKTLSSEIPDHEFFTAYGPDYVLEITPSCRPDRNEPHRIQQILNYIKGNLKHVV

HDAC1 = HDAC1 (Homo sapiens, UniProt Q13547); assay: as above
HDAC2 = HDAC2 (Homo sapiens, UniProt Q92769); assay: as above
tumor = assay: In vivo tumor growth inhibition study
Excerpt: Although the distribution effect of these compounds is similar, there is a notable difference in drug exposure of ˜30 percent for the peptide isostere.

Solubility in solvents = assay: Solubility in solvents
Procedure: Trityl thiol was dissolved in 0.6 mL of DCM and cooled to 0° C. TFA (30 μL) and iPr3SiH (2.0 μL, 10 μmol) were added to the solution at 0° C. The bath was removed and the reaction was allowed to stir at room temperature for 1 h. Solvent was removed by argon flow and the residue 14 is taken crude for biological evaluation.

[1] = system: NOTCH1 mutated T-ALL cells (ALL/SIL); assay: ATP-based cell viability assay (CellTiter-Glo) in T-ALL cells; settings: ALL/SIL, 72, 144, 216 hours, 10 μM to 0.078 μM, FIGS. 14-16
Procedure: (§1) To test the hypothesis that largazole folate-conjugated small molecules target T-ALL, dose-ranging ATP content assays were performed. […] Next, an ATP-based assay (CellTiter-Glo, Promega®) was used to calculate the half-maximal inhibitory concentration (IC50) of cell viability. Graphs were plotted as a fraction of cells alive (y-axis) using Prism GraphPad 6 software and drug doses expressed as Log [μM] (x-axis).

[2] = system: NOTCH1 mutated T-ALL cells (DND41); assay: as above; settings: DND41, 72, 144, 216 hours, 10 μM to 0.078 μM, FIGS. 11-13
Procedure: as §1

Class I HDAC = assay: HDAC biochemical selectivity profiling; settings: FIG. 1B, versus free Largazole-thiol
HDACs1, 2 & 3 = assay: Affinity precipitation from HeLa Nuclear Extract with streptavidin beads, immunoblot; assay type: binding; settings: 1 μM in 200 μL HeLa Nuclear Extract, 16 hr incubation, FIG. 1C
Procedure: 1 μM Largazole-Btn (54) in 200 μL of HeLa Nuclear Extract […] of streptavidin beads added after 16 hr incubation with compound.

Chain of HDAC1 (Q13547 whole entry): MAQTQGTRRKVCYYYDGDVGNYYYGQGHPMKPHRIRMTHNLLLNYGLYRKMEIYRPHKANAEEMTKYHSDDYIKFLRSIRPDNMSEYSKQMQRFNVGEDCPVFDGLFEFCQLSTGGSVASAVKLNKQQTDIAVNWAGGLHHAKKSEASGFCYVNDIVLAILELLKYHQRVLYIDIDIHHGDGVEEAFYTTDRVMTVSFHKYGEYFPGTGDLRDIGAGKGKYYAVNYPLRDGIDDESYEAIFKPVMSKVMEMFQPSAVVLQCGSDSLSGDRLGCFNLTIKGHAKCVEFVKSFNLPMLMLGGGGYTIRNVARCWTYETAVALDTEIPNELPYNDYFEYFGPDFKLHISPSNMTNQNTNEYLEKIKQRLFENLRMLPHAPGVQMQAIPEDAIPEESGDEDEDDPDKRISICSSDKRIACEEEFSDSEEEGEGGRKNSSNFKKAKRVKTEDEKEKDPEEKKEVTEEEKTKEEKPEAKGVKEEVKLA
Chain of HDAC2 (Q92769 whole entry): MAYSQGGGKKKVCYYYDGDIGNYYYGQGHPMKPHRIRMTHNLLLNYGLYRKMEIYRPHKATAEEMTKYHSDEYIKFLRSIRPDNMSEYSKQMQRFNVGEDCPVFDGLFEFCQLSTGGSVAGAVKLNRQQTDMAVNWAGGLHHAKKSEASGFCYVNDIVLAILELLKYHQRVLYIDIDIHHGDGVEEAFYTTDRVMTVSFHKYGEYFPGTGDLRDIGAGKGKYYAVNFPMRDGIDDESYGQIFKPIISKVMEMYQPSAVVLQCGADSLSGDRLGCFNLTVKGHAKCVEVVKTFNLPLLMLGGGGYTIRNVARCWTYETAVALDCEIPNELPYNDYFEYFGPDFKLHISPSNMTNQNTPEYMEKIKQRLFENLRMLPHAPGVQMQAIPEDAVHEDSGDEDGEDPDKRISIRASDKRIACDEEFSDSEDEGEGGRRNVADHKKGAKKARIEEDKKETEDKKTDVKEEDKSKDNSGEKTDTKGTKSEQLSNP

CCCCCCCC(=O)SCC/C=C/[C@@H]1CC(=O)NCc2nc(cs2)C2=N[C@@](C)(CS2)C(=O)N[C@@H](C(C)C)C(=O)O1 [Largazole]
IC50 HDAC8 (HDAC8): much higher
pIC50 (HDAC1): > 7.70
pIC50 (HDAC2): > 7.70
tumor growth inhibition (tumor): 34%

CCCCCCCC(=O)SCC/C=C/C1CC(=O)NCc2nc(c(-c3ccc(CNC(=O)CC[C@H](NC(=O)c4ccc(NCc5cnc6nc(N)[nH]c(=O)c6n5)cc4)C(=O)O)cc3)s2)C2=N[C@@](C)(CS2)C(=O)NC(C(C)C)C(=O)N1 (some centres unmarked)
solubility (solvents) (Solubility in solvents): soluble in mixture of CH2Cl2-MeOH, or DMSO

CCCCCCCC(=O)SCC/C=C/C1CC(=O)NCc2nc(c(-c3ccc(COC(=O)CC[C@H](NC(=O)c4ccc(NCc5cnc6nc(N)[nH]c(=O)c6n5)cc4)C(=O)O)cc3)s2)C2=N[C@@](C)(CS2)C(=O)NC(C(C)C)C(=O)N1 (some centres unmarked)
solubility (solvents) (Solubility in solvents; FIG. 10 legend): soluble in MeOH, CHCl3, DMSO
cell viability [1]: loss of cellular viability
cell viability [2]: loss of cellular viability

largazole thiol
tumor growth inhibition (tumor): 44%

CC(C)[C@@H]1NC(=O)[C@]2(C)CSC(=N2)c2nc(sc2-c2ccc(CNC(=O)CC[C@H](NC(=O)c3ccc(NCc4cnc5nc(N)[nH]c(=O)c5n4)cc3)C(=O)O)cc2)CNC(=O)CC(/C=C/CCS)NC1=O (some centres unmarked) [Compound 14]
solubility in organic solvent (Solubility in solvents; crude product): very poor
solubility in water (Solubility in solvents; crude product): not soluble in water

CC(C)[C@@H]1NC(=O)[C@]2(C)CSC(=N2)c2nc(sc2-c2ccc(CNC(=O)CCCCCNC(=O)CCCCCNC(=O)CCCCC3SC[C@@H]4NC(=O)N[C@H]34)cc2)CNC(=O)CC(/C=C/CCS)OC1=O (some centres unmarked) [Largazole-Biotin]
biochemical selectivity (Class I HDAC): compares favorably to free Largazole-thiol
affinity precipitation of HDACs by immunoblot (HDACs1, 2 & 3): affinity precipitation of HDACs1, 2 & 3

CC(C)C1NC(=O)[C@]2(C)CSC(=N2)c2nc(sc2-c2ccc(CNC(=O)CC[C@H](NC(=O)c3ccc(NCc4cnc5nc(N)[nH]c(=O)c5n4)cc3)C(=O)O)cc2)CNC(=O)CC(/C=C/CCS)NC1=O (some centres unmarked)
solubility (solvents) (Solubility in solvents; FIG. 10 legend): only soluble in DMSO
